Where two headings read alike, the source gives them in different places.
Experiments:
in vitro = conditions: human, pH 7, HepG2 CC50
Description: (§1) Initial hits from the parasite panel screen were taken forward in log concentration versus normalised response assays to estimate the half maximal effective concentration (EC50) in hit species as well as the half maximal cytotoxic concentrations (CC50) in the human hepatoma cell line HepG2 as a preliminary test for selectivity. Using CC50/EC50 to define the selectivity index (SI), the selectivity for each compound in a defined species compared to a human cell line was estimated and compared to the EC50 (Figure 3).
(§2) L. mexicana strain MNYC/BZ/62/M379 and L. donovani strain LdBOB (a clonal line from strain MHOM/SD/62/1S-CL2) were maintained in vitro in the procyclic promastigote stage. Parasites were cultivated at 26 °C in Schneider’s medium (Gibco) pH 7.0 containing 10% FBS, 100 U/mL penicillin (Lonza) and 100 μg/mL streptomycin (Lonza) as previously described. Differentiation into axenic amastigotes was performed as described previously. Briefly, axenic amastigotes were cultivated at 32 °C in Schneider’s medium pH 5.5 containing 10% FBS, 100 U/mL penicillin (Lonza) and 100 μg/mL streptomycin (Lonza). Bloodstream form T. brucei brucei strain Lister 427 and T. evansi strain Antat 3/3 [59] were maintained in vitro at 37 °C with 5% (v/v) CO2 in HMI-11 medium supplemented with 10% FBS, as described elsewhere. Intraerythrocytic cultures of P. falciparum Dd2^Luc strain [62] were maintained at 37 °C in a 1% O2:3% CO2:96% N2 atmosphere in RPMI-1640 containing 37.5 mM HEPES, 5 mM NaOH, 10 mM D-glucose, 2 mM L-glutamine, 100 μM hypoxanthine, […] gentamicin sulfate, 5% human serum and 5% albumax-II and 2% haematocrit erythrocytes. When required, cultures were synchronised to ring stages using the sorbitol lysis method. Preliminary cytotoxicity screening was assessed using HepG2 cells. These cells were maintained in vitro at 37 °C with 5% (v/v) CO2 in DMEM (Sigma) pH 7 supplemented with 10% FBS, 100 U/mL penicillin (Lonza) and 100 μg/mL streptomycin (Lonza), as previously described. The human monocyte cell line THP-1 [68] was maintained in vitro by culturing at 37 °C with 5% (v/v) CO2 in complete RPMI medium (Dutch modified RPMI-1640 (Gibco) containing 10% FBS and 2 mM L-glutamine (Gibco)). Differentiation of THP-1 cells into macrophages was performed by seeding 2.5 × 10^5 cells/mL in complete RPMI media, supplemented with 20 ng/mL phorbol 12-myristate 13-acetate (PMA), followed by incubation at 37 °C with 5% (v/v) CO2 for 24 h.
(§3) EC50 values were determined by serial two-fold dilution of each compound in 96 well plates. Culture conditions and viability assays were as stated for the initial screen, with some exceptions. L. mexicana and L. donovani axenic amastigotes were seeded at 2 × 10^6 cell/s mL, T. brucei and T. evansi were seeded at 2 × 10^5 cells/mL. For cytotoxicity studies, HepG2 cells were seeded at 1 × 10^5 cells/mL, incubated for 48 h and viability was assessed using the Alamar Blue assay. Differentiated THP-1 cells were seeded at 5 × 10^4 cells/mL, incubated for 48 h, and viability was assessed by the Alamar Blue assay. Normalised growth and viability data (compared to untreated controls) were plotted against Log10 concentration to estimate EC50 in GraphPad (Prism v6). Bioluminescence relative rate of kill assays in asexual intraerythrocytic P. falciparum Dd2^Luc were carried out as described.

HepG2 cells = test: in vitro; conditions: human, 48 h, pH 7
Description: as §1, §2, §3

[1] = tested on: L. mexicana axenic amastigotes; test: Initial screen, L. mexicana axenic amastigotes, Alamar Blue; type: cell-based, Leishmania mexicana
Summary of the method: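 Purified temperate plant natural products from a commercial library (1 mg/mL in DMSO) were tested against Leishmania mexicana axenic amastigotes at a final 2 μM. Parasites were seeded at 1 × 10^6 cells/mL in 96-well plates containing 200 μL culture and incubated 72 h. Growth was measured by Alamar Blue and normalised to DMSO controls (1% v/v), with triplicates over two biological replicates (n = 6).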

[2] = tested on: P. falciparum Dd2Luc intraerythrocytic trophozoites; test: Initial screen, intraerythrocytic P. falciparum, Malaria SYBR-Green I fluorescence assay; type: cell-based, Plasmodium falciparum; conditions: for activity at 2 µM / inhibition of growth at 2 µM: Plasmodium falciparum, 48 h; for initial hit against P. falciparum: 2 μM, growth reduced by ≥50%; for inhibition of growth at 2 µM: read-out: initial hit P.f
Summary of the method: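 L. mexicana axenic amastigotes at 1 × 10^6 cells/mL exposed 72 h to compounds at 2 μM, growth read by Alamar Blue; P. falciparum trophozoites at 0.5% parasitaemia, 2% haematocrit, 48 h at 2 μM, SYBR-Green I read-out. Growth normalised to 1% DMSO; hits ≥50% growth reduction.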

T. brucei = test: Concentration-response EC50, T. brucei; type: cell-based, Trypanosoma brucei brucei; conditions: for EC50: Trypanosoma brucei, 48 h; for selectivity index (HepG2 CC50 / T. brucei EC50): preliminary selectivity against HepG2
[3] = tested on: T. brucei bloodstream form; test: Initial screen, T. brucei bloodstream form, Alamar Blue; type: cell-based, Trypanosoma brucei brucei; conditions: for initial hit against T. brucei: growth reduced by ≥50%; for activity at 2 µM / inhibition of growth at 2 µM: Trypanosoma brucei; for inhibition of growth at 2 µM: read-out: initial hit T.b
Summary of the method: (§4)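 Bloodstream-form T. evansi Antat 3/3 and T. brucei Lister 427 were grown in HMI-11 with 10% FBS at 37 °C. Parasites were plated at 1×10^5 cells/mL with compound at 1 μM (T. evansi) or 2 μM (T. brucei) for 48 h, and growth was read by Alamar Blue relative to 1% DMSO controls (n = 6).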

P. falciparum Dd2Luc = test: Concentration-response EC50, P. falciparum Dd2Luc; type: cell-based, Plasmodium falciparum; conditions: Plasmodium falciparum, 48 h, read-out: P. falciparum Dd2Luc EC50, intraerythrocytic, 48 h
Description: (§5) EC50 values were determined by serial two-fold dilution of each compound in 96 well plates. Culture conditions and viability assays were as stated for the initial screen, with some exceptions. L. mexicana and L. donovani axenic amastigotes were seeded at 2 × 10^6 cell/s mL, T. brucei and T. evansi were seeded at 2 × 10^5 cells/mL. For cytotoxicity studies, HepG2 cells were seeded at 1 × 10^5 cells/mL, incubated for 48 h and viability was assessed using the Alamar Blue assay [66, 67]. […] Normalised growth and viability data (compared to untreated controls) were plotted against Log10 concentration to estimate EC50 in GraphPad (Prism v6).

P. falciparum 3D7 = test: Concentration-response EC50, P. falciparum 3D7; type: cell-based; conditions: Plasmodium falciparum
Description: This is not surprising as the rate of kill is a result of the mechanism of cell death and, given their structural similarity, these three bisobolane sesquiterpene glycosides likely share the same target(s), albeit with some differences in affinity. The rate of kill, relatively, falls between that of atovaquone and dihydroartemisinin and is more similar to that of chloroquine.

[4] = Cytotoxicity CC50, differentiated THP-1, Alamar Blue; type: cell-based, human; conditions: human, THP-1 cells differentiated into macrophages with PMA, differentiated THP-1, 48 h; read-out: THP1 CC50
Description: The four lanosterone-like sterols derived from the Noble Fir Abies procera (700022, 700107, 700136) and the Grand Fir Abies grandis (700240) were the only initial compounds taken forward for L. mexicana due to their nanomolar activity and apparent low cytotoxicity (Figure 3a). […] Understanding the impact of the ring-opened lactone head group in this compound compared to the other three warrants further analysis in exploring their structure-activity relationships. These four sterols were also tested for growth inhibitory activity against L. donovani axenic amastigotes. […] As Leishmania spp. amastigotes typically reside with macrophages, further cytotoxicity assays with these sterols were performed against an activated monocyte cell line (THP-1) (Figure 4b). […]

[5] = tested on: L. mexicana axenic amastigotes; test: Concentration-response EC50, L. mexicana axenic amastigotes (WT); type: cell-based, Leishmania mexicana; conditions: Leishmania mexicana, 72 h, read-out: L. mexicana EC50, axenic amastigotes, 72 h
Description: as §5

[6] = tested on: T. evansi bloodstream form; test: Initial screen, T. evansi bloodstream form, Alamar Blue; type: cell-based, Trypanosoma evansi; conditions: Trypanosoma evansi; for activity at 1 µM: initial screen
Summary of the method: as §4

T. evansi = test: Concentration-response EC50, T. evansi; type: cell-based; conditions: Trypanosoma evansi, 48 h, read-out: T. evansi EC50
Description: as §5

[7] = Leishmania mexicana, read-out: mean % growth, L. mexicana, initial screen, compared to a normalised control with same concentration of DMSO solvent
[8] = read-out: mean % growth, P. falciparum, initial screen, compared to a normalised control with same concentration of DMSO solvent
[9] = bloodstream form, read-out: T. brucei EC50
[10] = initial screen, compared to a normalised control with same concentration of DMSO solvent, read-out: mean % growth, T. b. brucei
[11] = Leishmania mexicana, read-out: % growth L. mexicana, mean % growth compared to a normalised control with same concentration of DMSO solvent, initial screen
[12] = read-out: %growth P. falciparum, mean % growth compared to a normalised control with same concentration of DMSO solvent, initial screen
[13] = 3D7, read-out: P. falciparum 3D7 EC50
[14] = read-out: % growth T. b. brucei, mean % growth compared to a normalised control with same concentration of DMSO solvent, initial screen
[15] = 3D7, intraerythrocytic, read-out: P. falciparum 3D7 EC50
[16] = mean % growth compared to a normalised control with same concentration of DMSO solvent, initial screen
[17] = read-out: T. brucei EC50, bloodstream form, 48 h

## CC1(C)OC2CC(=O)C=CC2(c2cc(=O)c3c(O)cc(O)cc3o2)O1 (stereo not drawn) [Compound 700585]
In vitro
  CC50 at 48 h: < 10000 nM
HepG2 cells
  CC50: 5300 nM
[1]; [7]
  activity at 2 µM: 78%
[2]; [8]
  activity at 2 µM: 95.2%
T. brucei; [9]
  EC50: 430 nM
T. brucei
  selectivity index (HepG2 CC50 / T. brucei EC50): > 10
[3]; 2 μM
  initial hit against T. brucei: initial hits
[3]; [10]
  activity at 2 µM: 40.8%
[3]; 2 μM, x = initial hit
  inhibition of growth at 2 µM: > 50%

## COc1cc(/C=C/C(=O)OC2CC3(C[C@H]4C=C(C(=O)OC5OC(CO)C(O)C(OC(C)=O)C5OC5OC(C)C(O)C(OC(C)=O)C5O)CC[C@H]4C34CO4)OC[C@@H]2C)ccc1O (stereo partly drawn) [Compound 700104]
P. falciparum Dd2Luc
  EC50: 750 nM
[1]; [11]
  activity at 2 µM: 146%
[2]
  initial hit against P. falciparum: initial hits
  inhibition of growth at 2 µM: > 50%
[2]; [12]
  activity at 2 µM: 31.6%
P. falciparum 3D7; [13]
  EC50: 350 nM
[3]; [14]
  activity at 2 µM: 69.7%

## CC(=O)OC1C(COC(=O)/C=C/c2ccc(O)cc2)OC(Oc2c(-c3ccc(O)cc3)oc3cc(O)cc(O)c3c2=O)C(OC(=O)/C=C/c2ccc(O)cc2)C1OC(C)=O (stereo not drawn) [Compound 701082]
In vitro
  CC50 at 48 h: 4600 nM
P. falciparum Dd2Luc
  EC50: 1200 nM
[1]; [7]
  activity at 2 µM: 67.8%
[2]; [8]
  activity at 2 µM: 77%
P. falciparum 3D7; [15]
  EC50: 1600 nM
T. brucei; [9]
  EC50: 1100 nM
[3]; 2 μM
  initial hit against T. brucei: initial hits
[3]; [10]
  activity at 2 µM: 5%
[3]; 2 μM, x = initial hit
  inhibition of growth at 2 µM: > 50%

## CC(=O)OC1C(O)C(C)OC(OC2C(OC(=O)C3CC[C@@H]4[C@H](C3)OC3(CC(OC(=O)/C=C/c5ccccc5)[C@@H](C)CO3)C43CO3)OC(CO)C(O)C2OC(C)=O)C1O (stereo partly drawn) [Compound 700048]
P. falciparum Dd2Luc
  EC50: 150 nM
[1]; [11]
  activity at 2 µM: 89%
[2]
  initial hit against P. falciparum: initial hits
  inhibition of growth at 2 µM: > 50%
[2]; [16]
  %growth P. falciparum: 20.3%
P. falciparum 3D7; [13]
  EC50: 360 nM
T. brucei; [17]
  EC50: 160 nM
T. brucei
  selectivity index (HepG2 CC50 / T. brucei EC50): > 10
[3]; 2 μM
  initial hit against T. brucei: initial hits
[3]
  inhibition of growth at 2 µM: > 50%
[3]; [16]
  % growth T. b. brucei: 5.8%

## CC#CC#CCc1cccc(O)c1 [Compound 701241]
In vitro
  CC50 at 48 h: 670 nM
[4]
  CC50 at 48 h: 270 nM
[1]; 2 μM, growth inhibited by ≥80%
  initial hit against L. mexicana: initial hits
[1]; [7]
  activity at 2 µM: 15%
[1]; Leishmania mexicana, 2 μM, x = initial hit, read-out: initial hit L.m
  inhibition of growth at 2 µM: > 80%
[2]; [8]
  activity at 2 µM: 96.5%
[5]
  EC50: 330 nM
T. brucei; [9]
  EC50: 2200 nM
[3]; 2 μM
  initial hit against T. brucei: initial hits
[3]; [10]
  activity at 2 µM: -1.9%
[3]; 2 μM, x = initial hit
  inhibition of growth at 2 µM: > 50%

## C=C1C(OC(=O)/C=C/c2ccccc2)C(CC(C)=O)C(O)C2(C)CCC3=C(C)C(OC(C)=O)CC(CC12)C3(C)C (stereo not drawn) [Compound 700535]
P. falciparum Dd2Luc
  EC50: 2300 nM
[1]; [7]
  activity at 2 µM: 68.2%
[6]; compared to a normalised control with same concentration of DMSO solvent, read-out: mean % growth, T. evansi
  activity at 1 µM: 78.7%
[2]
  initial hit against P. falciparum: initial hits
  inhibition of growth at 2 µM: > 50%
[2]; [8]
  activity at 2 µM: 31%
P. falciparum 3D7; [15]
  EC50: 3300 nM
[3]; [10]
  activity at 2 µM: 99.4%

## CC(=O)OC1C(O)C(C)OC(OC2C(OC(=O)C3CC[C@@H]4[C@H](C3)OC3(CC(OC(=O)/C=C/c5ccccc5)[C@@H](C)CO3)C43CO3)OC(CO)C(O)C2O)C1O (stereo partly drawn) [Compound 700046]
P. falciparum Dd2Luc
  EC50: 56 nM
[1]; [11]
  activity at 2 µM: 83.4%
[6]; read-out: % growth T. evansi, mean % growth compared to a normalised control with same concentration of DMSO solvent
  activity at 1 µM: 2.9%
[6]; read-out: initial hit T.e
  inhibition of growth at 1 µM: > 50%
[2]
  initial hit against P. falciparum: initial hits
  inhibition of growth at 2 µM: > 50%
[2]; [12]
  activity at 2 µM: 9.8%
T. evansi
  EC50: 118 nM
P. falciparum 3D7; [13]
  EC50: 34 nM
T. brucei; [17]
  EC50: 180 nM
T. brucei
  selectivity index (HepG2 CC50 / T. brucei EC50): > 10
[3]; 2 μM
  initial hit against T. brucei: initial hits
[3]; [14]
  activity at 2 µM: 5.6%
[3]
  inhibition of growth at 2 µM: > 50%

— article PMC7998250, “Temperate Zone Plant Natural Products—A Novel Resource for Activity against Tropical Parasitic Diseases” (Pharmaceuticals, 2021)
